In patent US6514980B1, “Nucleoside analogs in combination therapy of herpes simplex infections” (Novartis International Pharmaceutical Ltd., priority 1996, dated 2003):

Test system: HSV-1 (SC16)
Test: Cutaneous HSV-1 infection of the ear pinna in mice immunosuppressed with Cyclosporin A (second experiment)
Type: in vivo
Settings: BALB/c mice immunosupressed with Cyclosporin A (second experiment) compared with immunocompetant mice (first experiment); oral antiviral treatment
Description: A cutaneous infection was established by inoculation of the ear pinnae of mice with HSV-1 (SC16) and the effects of oral famciclovir and valaciclovir on the latent virus infection was investigated.
BALB/c female mice (Bantin and Kingman, Kingston, Hull, UK) were purchased at 3 to 4 weeks old and inoculated one week later. Virus suspension (10 ul) containing 5×10^4 p.f.u. were inoculated into the skin of the left ear pinna. Skin thickness was measured daily in individual mice by means of an Engineers' micrometer screw gauge. (ref. Nash et al, 1980, J. Gen. Virol. 48, 351-357). Mice were killed daily and tissues removed for virus assays. Other mice were […]. The trigeminal ganglia and cervical dorsal root ganglia were removed and co-cultivated. Those cultures showing virus replication were recorded as positive.
In a first experiment, groups of immunocompetant mice were untreated (control), antiviral treatment was initiated on days 1, 2, 3, 4 or 5 post-infection (p.i.) and ceased on day 10 p.i.. The compounds were administered ad libitum in the drinking water, at 1 mg/ml (approximately 100 mg/kg/day).
In a second experiment, mice were immunosupressed with Cyclosporin A (CyA) from day-2 to day=10 (day 0 being the day of infection). […]

Structure (SMILES)	effect on virus replication and disease
CC(=O)OCC(CCn1cnc2cnc(N)nc21)COC(C)=O [famciclovir]	significantly greater effect
CC(C)[C@H](N)C(=O)OCCOCn1cnc2c(=O)[nH]c(N)nc21 [valaciclovir]	significantly greater effect
